Key:
Format in all cases: in vivo
[1] = tested on: blackgrass (Alopecurus myosuroides); assay: Test A postemergence, blackgrass; details: postemergence, 0 to 100 scale, 0 is no effect, 100 is complete control, approximately 10 days
Outline: (§1)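 Injury was assessed visually about ten days after application, relative to untreated plants, with 0 meaning no effect and 100 complete control. Treatments were soil-directed sprays after sowing (pre) or sprays on seedlings at one to two leaves (post), in loam soil/sand.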

[2] = tested on: ragweed (common ragweed, Ambrosia elatior); assay: Test A postemergence, ragweed; details: postemergence, 0 to 100 scale, 0 is no effect, 100 is complete control, approximately 10 days
Outline: as §1

kochia (Kochia scoparia) [3] = assay: Test A postemergence, kochia; details: postemergence, 0 to 100 scale, 0 is no effect, 100 is complete control, approximately 10 days
Outline: as §1

[4] = tested on: galium (catchweed bedstraw, Galium aparine); assay: Test A postemergence, galium; details: postemergence, 0 to 100 scale, 0 is no effect, 100 is complete control, approximately 10 days
Outline: as §1

[5] = tested on: barnyardgrass (Echinochloa crus-galli); assay: Test A postemergence, barnyardgrass; details: postemergence, 0 to 100 scale, 0 is no effect, 100 is complete control, approximately 10 days
Outline: as §1

[6] = tested on: ryegrass, Italian (Italian ryegrass, Lolium multiflorum); assay: Test A postemergence, Italian ryegrass; details: postemergence, 0 to 100 scale, 0 is no effect, 100 is complete control, approximately 10 days
Outline: as §1

[7] = tested on: pigweed (Amaranthus retroflexus); assay: Test A postemergence, pigweed; details: postemergence, 0 to 100 scale, 0 is no effect, 100 is complete control, approximately 10 days
Outline: as §1

[8] = tested on: barnyardgrass (Echinochloa crus-galli); assay: Test B flooded paddy test, barnyardgrass; details: 250 g ai/ha, Flood; visual rating after 13 to 15 days; scale 0 to 100, 0 is no effect, 100 is complete control
Outline: (§2)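 Visual ratings, 0 = no effect to 100 = complete control, versus controls after 13 to 15 days in greenhouse. Test compounds were added to paddy water kept 3 cm over the soil surface, on plants at 2-leaf stage.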

[9] = tested on: ducksalad (Heteranthera limosa); assay: Test B flooded paddy test, ducksalad; details: 250 g ai/ha, Flood; visual rating after 13 to 15 days; scale 0 to 100, 0 is no effect, 100 is complete control
Outline: as §2

[10] = tested on: pigweed (Amaranthus retroflexus); assay: Test A preemergence, pigweed; details: Preemergence, 0 to 100 scale (0 no effect, 100 complete control)
Outline: as §1

corn (Zea mays) = assay: Test A postemergence, corn; details: postemergence, 0 to 100 scale, 0 is no effect, 100 is complete control, approximately 10 days
Outline: as §1

[11] = tested on: foxtail, giant (giant foxtail, Setaria faberii); assay: Test A postemergence, giant foxtail; details: postemergence, 0 to 100 scale, 0 is no effect, 100 is complete control, approximately 10 days
Outline: as §1

[12] = tested on: ryegrass, Italian (Italian ryegrass, Lolium multiflorum); assay: Test A preemergence, Italian ryegrass; details: Preemergence, 0 to 100 scale (0 no effect, 100 complete control)
Outline: as §1

[13] = tested on: ragweed (common ragweed, Ambrosia elatior); assay: Test A preemergence, ragweed; details: Preemergence, 0 to 100 scale (0 no effect, 100 complete control)
Outline: as §1

[14] = tested on: wheat (Triticum aestivum); assay: Test A postemergence, wheat; details: postemergence, 0 to 100 scale, 0 is no effect, 100 is complete control, approximately 10 days
Outline: as §1

kochia (Kochia scoparia) [15] = assay: Test A preemergence, kochia; details: Preemergence, 0 to 100 scale (0 no effect, 100 complete control)
Outline: as §1

rice (Oryza sativa) = assay: Test B flooded paddy test, rice; details: 250 g ai/ha, Flood; visual rating after 13 to 15 days; scale 0 to 100, 0 is no effect, 100 is complete control
Outline: as §2

[16] = tested on: sedge, umbrella (small-flower umbrella sedge, Cyperus difformis); assay: Test B flooded paddy test, umbrella sedge; details: 250 g ai/ha, Flood; visual rating after 13 to 15 days; scale 0 to 100, 0 is no effect, 100 is complete control
Outline: as §2

[17] = tested on: foxtail, giant (giant foxtail, Setaria faberii); assay: Test A preemergence, giant foxtail; details: Preemergence, 0 to 100 scale (0 no effect, 100 complete control)
Outline: as §1

[18] = tested on: barnyardgrass (Echinochloa crus-galli); assay: Test A preemergence, barnyardgrass; details: Preemergence, 0 to 100 scale (0 no effect, 100 complete control)
Outline: as §1

| Structure (SMILES) | Plant response rating, Blackgrass ([1]; 125 g ai/ha) | Plant response rating, Ragweed ([2]; 125 g ai/ha) | Plant response rating, Kochia (kochia (Kochia scoparia) [3]; 125 g ai/ha) | Plant response rating, Galium ([4]; 125 g ai/ha) | Plant response rating, Barnyardgrass ([5]; 125 g ai/ha) | Plant response rating, Ryegrass, Italian ([6]; 125 g ai/ha) | Plant response rating, Pigweed ([7]; 125 g ai/ha) | Plant response rating, Barnyardgrass [8] | Plant response rating, Ducksalad [9] | Plant response rating, Pigweed ([10]; 125 g ai/ha) | Plant response rating, Corn (corn (Zea mays); 125 g ai/ha) | Plant response rating, Foxtail, Giant ([11]; 125 g ai/ha) | Plant response rating, Ryegrass, Italian ([12]; 125 g ai/ha) | Plant response rating, Ragweed ([13]; 125 g ai/ha) | Plant response rating, Wheat ([14]; 125 g ai/ha) | Plant response rating, Kochia (kochia (Kochia scoparia) [15]; 125 g ai/ha) | Plant response rating, Rice (rice (Oryza sativa)) | Plant response rating, Sedge, Umbrella [16] | Plant response rating, Foxtail, Giant ([17]; 125 g ai/ha) | Plant response rating, Barnyardgrass ([18]; 125 g ai/ha) | further results |
| --- | --- | --- | --- | --- | --- | --- | --- | --- | --- | --- | --- | --- | --- | --- | --- | --- | --- | --- | --- | --- | --- |
| N#CCCCOc1c(C#N)cccc1Oc1ncc(Cl)cn1 [Compound 22] | 0 | 10 | 90 | 50 | 0 | 0 | 80 | 0 | 0 | 100 | 20 | 10 | 0 | 30 | 20 | 90 | 0 | 0 | 90 | 20 | Plant response rating, Blackgrass ([1]; 31 g ai/ha): 0; Plant response rating, Ragweed ([2]; 31 g ai/ha): 0; Plant response rating, Kochia (kochia (Kochia scoparia) [3]; 31 g ai/ha): 80; Plant response rating, Galium ([4]; 31 g ai/ha): 20; Plant response rating, Barnyardgrass ([5]; 31 g ai/ha): 0; Plant response rating, Ryegrass, Italian ([6]; 31 g ai/ha): 0; Plant response rating, Pigweed ([7]; 31 g ai/ha): 30; Plant response rating, Pigweed ([10]; 31 g ai/ha): 80; Plant response rating, Corn (corn (Zea mays); 31 g ai/ha): 10; Plant response rating, Foxtail, Giant ([11]; 31 g ai/ha): 0; Plant response rating, Ryegrass, Italian ([12]; 31 g ai/ha): 0; Plant response rating, Ragweed ([13]; 31 g ai/ha): 10; Plant response rating, Wheat ([14]; 31 g ai/ha): 0; Plant response rating, Kochia (kochia (Kochia scoparia) [15]; 31 g ai/ha): 70; Plant response rating, Foxtail, Giant ([17]; 31 g ai/ha): 0; Plant response rating, Barnyardgrass ([18]; 31 g ai/ha): 0 |
| Fc1cccc(Oc2ncc(Cl)cn2)c1OCCC(F)(F)F [Compound 29] | 0 | 0 | 40 | 20 | 20 | 0 | 50 | 0 | 50 | 100 | 0 | 20 | 10 | 0 | 0 | 40 | 0 | 0 | 70 | 70 | Plant response rating, Blackgrass ([1]; 500 g ai/ha): 50; Plant response rating, Ragweed ([2]; 500 g ai/ha): 10; Plant response rating, Kochia (kochia (Kochia scoparia) [3]; 500 g ai/ha): 80; Plant response rating, Galium ([4]; 500 g ai/ha): 50; Plant response rating, Barnyardgrass ([5]; 500 g ai/ha): 70; Plant response rating, Ryegrass, Italian ([6]; 500 g ai/ha): 20; Plant response rating, Pigweed ([7]; 500 g ai/ha): 100; Plant response rating, Pigweed ([10]; 500 g ai/ha): 100; Plant response rating, Corn (corn (Zea mays); 500 g ai/ha): 10; Plant response rating, Foxtail, Giant ([11]; 500 g ai/ha): 80; Plant response rating, Ryegrass, Italian ([12]; 500 g ai/ha): 70; Plant response rating, Ragweed ([13]; 500 g ai/ha): 20; Plant response rating, Wheat ([14]; 500 g ai/ha): 20; Plant response rating, Kochia (kochia (Kochia scoparia) [15]; 500 g ai/ha): 100; Plant response rating, Foxtail, Giant ([17]; 500 g ai/ha): 100; Plant response rating, Barnyardgrass ([18]; 500 g ai/ha): 100 |
| N#Cc1cccc(Oc2ncc(Cl)cn2)c1OCCCCC(F)(F)F [Compound 32] | 50 | 10 | 100 | 100 | 100 | 30 | 100 | 30 | 90 | 100 | 20 | 80 | 30 | 10 | 30 | 90 | 40 | 100 | 100 | 100 | Plant response rating, Blackgrass ([1]; 31 g ai/ha): 30; Plant response rating, Ragweed ([2]; 31 g ai/ha): 10; Plant response rating, Kochia (kochia (Kochia scoparia) [3]; 31 g ai/ha): 100; Plant response rating, Galium ([4]; 31 g ai/ha): 70; Plant response rating, Barnyardgrass ([5]; 31 g ai/ha): 60; Plant response rating, Ryegrass, Italian ([6]; 31 g ai/ha): 10; Plant response rating, Pigweed ([7]; 31 g ai/ha): 100; Plant response rating, Pigweed ([10]; 31 g ai/ha): 100; Plant response rating, Corn (corn (Zea mays); 31 g ai/ha): 10; Plant response rating, Foxtail, Giant ([11]; 31 g ai/ha): 50; Plant response rating, Ryegrass, Italian ([12]; 31 g ai/ha): 10; Plant response rating, Ragweed ([13]; 31 g ai/ha): 0; Plant response rating, Wheat ([14]; 31 g ai/ha): 20; Plant response rating, Kochia (kochia (Kochia scoparia) [15]; 31 g ai/ha): 30; Plant response rating, Foxtail, Giant ([17]; 31 g ai/ha): 100; Plant response rating, Barnyardgrass ([18]; 31 g ai/ha): 30 |
| FC(F)C(F)(F)C(F)(F)C(F)(F)COc1c(Br)cccc1Oc1ncc(Cl)cn1 [Compound 53] | 30 | 40 | 100 | 90 | 40 | 20 | 100 | 0 | 90 | 80 | 10 | 30 | 20 | 0 | 10 | 20 | 15 | 80 | 100 | 60 | Plant response rating, Blackgrass ([1]; 500 g ai/ha): 60; Plant response rating, Ragweed ([2]; 500 g ai/ha): 80; Plant response rating, Kochia (kochia (Kochia scoparia) [3]; 500 g ai/ha): 100; Plant response rating, Galium ([4]; 500 g ai/ha): 100; Plant response rating, Barnyardgrass ([5]; 500 g ai/ha): 100; Plant response rating, Ryegrass, Italian ([6]; 500 g ai/ha): 70; Plant response rating, Pigweed ([7]; 500 g ai/ha): 100; Plant response rating, Pigweed ([10]; 500 g ai/ha): 100; Plant response rating, Corn (corn (Zea mays); 500 g ai/ha): 30; Plant response rating, Foxtail, Giant ([11]; 500 g ai/ha): 100; Plant response rating, Ryegrass, Italian ([12]; 500 g ai/ha): 80; Plant response rating, Ragweed ([13]; 500 g ai/ha): 20; Plant response rating, Wheat ([14]; 500 g ai/ha): 30; Plant response rating, Kochia (kochia (Kochia scoparia) [15]; 500 g ai/ha): 90; Plant response rating, Foxtail, Giant ([17]; 500 g ai/ha): 100; Plant response rating, Barnyardgrass ([18]; 500 g ai/ha): 100 |
| Cc1cccc(Oc2ncc(Cl)cn2)c1OCCCC(F)(F)F [Compound 55] | 20 | 0 | 20 | 20 | 20 | 20 | 30 | 40 | 100 | 50 | 20 | 60 | 10 | 0 | 0 | 60 | 45 | 95 | 80 | 70 | Plant response rating, Blackgrass ([1]; 31 g ai/ha): 0; Plant response rating, Ragweed ([2]; 31 g ai/ha): 0; Plant response rating, Kochia (kochia (Kochia scoparia) [3]; 31 g ai/ha): 10; Plant response rating, Galium ([4]; 31 g ai/ha): 0; Plant response rating, Barnyardgrass ([5]; 31 g ai/ha): 10; Plant response rating, Ryegrass, Italian ([6]; 31 g ai/ha): 0; Plant response rating, Pigweed ([7]; 31 g ai/ha): 10; Plant response rating, Pigweed ([10]; 31 g ai/ha): 0; Plant response rating, Corn (corn (Zea mays); 31 g ai/ha): 0; Plant response rating, Foxtail, Giant ([11]; 31 g ai/ha): 20; Plant response rating, Ryegrass, Italian ([12]; 31 g ai/ha): 0; Plant response rating, Ragweed ([13]; 31 g ai/ha): 0; Plant response rating, Wheat ([14]; 31 g ai/ha): 0; Plant response rating, Kochia (kochia (Kochia scoparia) [15]; 31 g ai/ha): 0; Plant response rating, Foxtail, Giant ([17]; 31 g ai/ha): 10; Plant response rating, Barnyardgrass ([18]; 31 g ai/ha): 10 |
